The values below come from DBAASP.

Among the test systems are Bacillus subtilis 168; Micrococcus luteus; Staphylococcus aureus; Bacillus subtilis.
Holding throughout (assay): ≥ marks a high value that may be exact or a test limit, other limits are often not marked, values filed in µg/mL are converted to µM
For experiment [1], the system named is Escherichia coli ATCC 25922.
The subject of experiment [2] is Staphylococcus aureus NCTC 8325.
Experiment [3] deals with Candida albicans ATCC 90028.
Experiment [4] deals with Klebsiella pneumoniae ATCC 13883.
Experiment [5] relates to Pseudomonas aeruginosa PAO1.
Experiment [6] deals with Staphylococcus aureus USA 300.
Experiment [7] deals with Escherichia coli DH5alpha.
The subject of experiment [8] is Staphylococcus aureus ATCC 25923.
Experiment [9] relates to Acinetobacter baumannii ATCC 19606.
In experiment [10] the test system is Salmonella enterica subsp. enterica serovar Typhimurium ATCC 14028.

In brackets after ≈: the same amount, converted by molar mass. Several values for one entry are separate records, joined by “and”; a condition that tells them apart may be missing. Identical values can stand only once.

Regarding `CC[C@H](C)[C@H](NC(=O)[C@H](Cc1ccccc1)NC(=O)[C@H](CCCCN)NC(=O)[C@H](CCCCN)NC(=O)[C@H](CCC(=O)O)NC(=O)[C@H](CC(N)=O)NC(=O)[C@H](Cc1ccc(O)cc1)NC(=O)[C@H](CCCCN)NC(=O)[C@H](CC(N)=O)NC(=O)[C@H](CC(C)C)NC(=O)[C@H](CCC(=O)O)NC(=O)[C@H](CC(N)=O)NC(=O)[C@H](CC(C)C)NC(=O)[C@H](Cc1ccccc1)NC(=O)[C@H](CO)NC(=O)[C@@H](N)[C@@H](C)O)C(=O)O` [TSFLNELNKYNEKKFI], the MIC came out at 15.7 µM (≈ 31.2 µg/mL) with Bacillus subtilis 168, 31.4 µM (≈ 62.5 µg/mL) in experiment [1], 31.4 µM (≈ 62.5 µg/mL) against Micrococcus luteus and 4.17 µM (≈ 8.3 µg/mL) against Staphylococcus aureus.

`CC[C@H](C)[C@H](NC(=O)CNC(=O)[C@H](C)NC(=O)[C@@H](NC(=O)[C@H](CC(=O)O)NC(=O)[C@H](CCCCN)NC(=O)[C@H](C)NC(=O)[C@H](C)NC(=O)CNC(=O)[C@H](CCCCN)NC(=O)[C@H](CC(C)C)NC(=O)[C@@H](NC(=O)[C@H](CC(=O)O)NC(=O)[C@H](CC(C)C)NC(=O)[C@H](CC(C)C)NC(=O)[C@H](CC(C)C)NC(=O)CN)[C@@H](C)O)[C@@H](C)CC)C(=O)N[C@@H](C)C(=O)N[C@@H](CC(C)C)C(=O)N[C@@H](CCC(=O)O)C(=O)N[C@@H](CCCCN)C(=O)N[C@@H](CC(C)C)C(=O)N[C@@H](CCCCN)C(=O)N[C@H]1CSSC[C@@H](C(=O)N[C@@H](CCCCN)C(=O)N2CCC[C@H]2C(=O)O)NC(=O)CNC(=O)[C@H]([C@@H](C)O)NC(=O)[C@H]([C@@H](C)CC)NC(=O)[C@H](CCCCN)NC1=O` [GLLLDTLKGAAKDIAGIALEKLKCKITGCKP]: the MIC in [1] is 19 µM (≈ 60.4 µg/mL); in experiment [2] it was ≥ 150 µM.

As to `CC[C@H](C)[C@H](NC(=O)[C@H](C)NC(=O)[C@@H]1CCCN1C(=O)[C@H](CC(C)C)NC(=O)[C@@H](N)Cc1ccccc1)C(=O)N[C@@H](C)C(=O)NCC(=O)N[C@H](C(=O)N[C@@H](C)C(=O)N[C@@H](C)C(=O)N[C@@H](CCCCN)C(=O)N[C@@H](Cc1ccccc1)C(=O)N[C@@H](CC(C)C)C(=O)N1CCC[C@H]1C(=O)N[C@@H](CCCCN)C(=O)N[C@H](C(=O)N[C@@H](Cc1ccccc1)C(=O)N[C@H]1CSSC[C@@H](C(=O)O)NC(=O)[C@H](CCCCN)NC(=O)[C@H](CCCCN)NC(=O)[C@H](CO)NC(=O)[C@H]([C@@H](C)CC)NC(=O)[C@H](C)NC1=O)[C@@H](C)CC)C(C)C` [FLPAIAGVAAKFLPKIFCAISKKC], the MIC in experiment [3] was found to be 7 µM (≈ 17.7 µg/mL); in [1], 7 µM (≈ 17.7 µg/mL); in [2], 3 µM (≈ 7.61 µg/mL).

In the case of `CC[C@H](C)[C@@H]1NC(=O)[C@H](CC(C)C)NC(=O)[C@@H](NC(=O)[C@H](CC(C)C)NC(=O)[C@H](CC(C)C)NC(=O)[C@H](CCCCN)NC(=O)[C@@H]2CCCN2C(=O)CNC(=O)[C@H](CC(C)C)NC(=O)[C@@H](NC(=O)[C@H](C)NC(=O)[C@H](C)NC(=O)[C@H](CC(C)C)NC(=O)[C@H](CO)NC(=O)[C@H](C)NC(=O)[C@H](CC(C)C)NC(=O)[C@@H](NC(=O)[C@@H]2CCCN2C(=O)[C@H](CC(C)C)NC(=O)[C@@H](N)Cc2ccccc2)[C@@H](C)CC)[C@@H](C)O)CSSC[C@@H](C(=O)O)NC(=O)[C@H](CCCCN)NC(=O)[C@H](CCCCN)NC(=O)[C@H]([C@@H](C)O)NC1=O` [FLPILASLAATLGPKLLCLITKKC], the values for the MIC in experiment [3] and in experiment [2] were ≥ 35 µM and 8 µM (≈ 20.2 µg/mL), respectively.

As for `CC[C@H](C)[C@@H]1NC(=O)[C@H](CCCCN)NC(=O)[C@@H](NC(=O)[C@H](C)NC(=O)[C@@H](NC(=O)[C@H](CC(C)C)NC(=O)[C@H](CC(=O)O)NC(=O)[C@@H](NC(=O)CNC(=O)[C@H](CC(C)C)NC(=O)[C@H](CCCCN)NC(=O)[C@@H](NC(=O)[C@H](CC(C)C)NC(=O)[C@H](CC(=O)O)NC(=O)[C@H](CCCCN)NC(=O)CNC(=O)[C@H](CC(C)C)NC(=O)CNC(=O)[C@H](CCCCN)NC(=O)[C@H](CO)NC(=O)[C@H](C)NC(=O)[C@H](Cc2ccccc2)NC(=O)[C@H](CCCCN)NC(=O)[C@H](C)NC(=O)[C@H](C)NC(=O)CNC(=O)[C@H](CCCN=C(N)N)NC(=O)[C@H](CC(C)C)NC(=O)[C@@H](NC(=O)[C@H](CO)NC(=O)[C@H](Cc2ccccc2)NC(=O)[C@H](CC(C)C)NC(=O)CN)[C@@H](C)CC)[C@@H](C)O)C(C)C)C(C)C)CSSC[C@@H](C(=O)O)NC(=O)[C@H](CCC(N)=O)NC(=O)[C@H](CCCCN)NC(=O)[C@H](CO)NC1=O` [GLFSILRGAAKFASKGLGKDLTKLGVDLVACKISKQC], the MIC was 29 µM (≈ 111 µg/mL) in experiment [3], 1 µM (≈ 3.84 µg/mL) in experiment [1] and 1 µM (≈ 3.84 µg/mL) in [2].

With `CC(C)C[C@H](NC(=O)[C@H](CC(C)C)NC(=O)[C@H](CCCCN)NC(=O)CNC(=O)[C@H](CC(C)C)NC(=O)[C@H](CC(C)C)NC(=O)[C@H](CO)NC(=O)[C@H](CC(C)C)NC(=O)[C@H](C)NC(=O)[C@H](CO)NC(=O)[C@H](CC(C)C)NC(=O)[C@H](CC(C)C)NC(=O)CN)C(N)=O` [GLLSALSLLGKLL], the MIC in [1] was 3.1 µM (≈ 4.02 µg/mL); in experiment [4] it was 3.1 µM (≈ 4.02 µg/mL); in [5] it was > 25 µM; in experiment [6], 0.78 µM (≈ 1.01 µg/mL).

As to `CC[C@H](C)[C@@H]1NC(=O)[C@H](C)NC(=O)[C@@H](NC(=O)[C@H](Cc2ccccc2)NC(=O)[C@@H](NC(=O)[C@H](CCCCN)NC(=O)[C@@H]2CCCN2C(=O)[C@H](CC(C)C)NC(=O)[C@H](Cc2ccccc2)NC(=O)[C@H](CC(N)=O)NC(=O)[C@H](C)NC(=O)[C@H](C)NC(=O)[C@H](CC(C)C)NC(=O)CNC(=O)[C@H](C)NC(=O)[C@@H](NC(=O)[C@H](CC(C)C)NC(=O)[C@@H]2CCCN2C(=O)[C@H](CC(C)C)NC(=O)[C@@H](N)Cc2ccccc2)[C@@H](C)CC)[C@@H](C)CC)CSSC[C@@H](C(=O)O)NC(=O)[C@H](CCCCN)NC(=O)[C@H](CCCCN)NC(=O)[C@H]([C@@H](C)O)NC1=O` [FLPLIAGLAANFLPKIFCAITKKC], the MIC is 6 µM (≈ 15.5 µg/mL) in [3], 26 µM (≈ 67.4 µg/mL) in experiment [1] and 9 µM (≈ 23.3 µg/mL) in experiment [2].

Regarding `CC[C@H](C)[C@@H]1NC(=O)CNC(=O)[C@H](Cc2c[nH]c3ccccc23)NC(=O)[C@@H]2CSSC[C@H](NC(=O)[C@H](C)N)C(=O)N[C@@H](CCC(N)=O)C(=O)N[C@@H](Cc3ccccc3)C(=O)N[C@@H](Cc3c[nH]c4ccccc34)C(=O)N[C@@H](CO)C(=O)N[C@H]3CSSC[C@H](NC(=O)[C@H](Cc4ccc(O)cc4)NC(=O)[C@H](CCCCN)NC(=O)[C@H](Cc4ccc(O)cc4)NC(=O)[C@H](CCC(N)=O)NC1=O)C(=O)N[C@@H](CCC(N)=O)C(=O)N[C@H](C(=O)N[C@@H](CCC(N)=O)C(=O)O)CSSC[C@H](NC(=O)[C@H](CO)NC(=O)[C@H](CO)NC(=O)[C@H](CC(N)=O)NC3=O)C(=O)N[C@@H]([C@@H](C)CC)C(=O)N[C@@H](CO)C(=O)N[C@@H](CCCN=C(N)N)C(=O)NCC(=O)N[C@@H](Cc1ccc(O)cc1)C(=O)N[C@@H](CCCN=C(N)N)C(=O)N[C@@H](CCC(N)=O)C(=O)NCC(=O)N[C@@H](Cc1ccc(O)cc1)C(=O)N2` [ACQFWSCNSSCISRGYRQGYCWGIQYKYCQCQ], the MIC is 13.1 µM (≈ 49.9 µg/mL) against Bacillus subtilis, 13.1 µM (≈ 49.9 µg/mL) in experiment [7], 13.1 µM (≈ 49.9 µg/mL) in [4] and > 13.1 µM in [8].

Turning to `CC(C)C[C@H](NC(=O)[C@H](CCCCN)NC(=O)[C@H](CCCCN)NC(=O)[C@H](C)NC(=O)[C@H](Cc1c[nH]c2ccccc12)NC(=O)CNC(=O)[C@H](CCCCN)NC(=O)[C@@H](N)CCCCN)C(=O)N[C@@H](C)C(=O)N[C@@H](Cc1ccccc1)C(=O)N[C@@H](C)C(=O)N[C@@H](Cc1ccccc1)C(=O)NCC(=O)N[C@@H](CCCCN)C(=O)N[C@@H](CCCCN)C(=O)O` [KKGWAKKLAFAFGKK], the MIC in experiment [9] is > 30 µM; in experiment [1], 7.3 µM and 8.9 µM; in experiment [4] it was 30 µM (≈ 51.2 µg/mL); in experiment [5], 20.7 µM and 23.7 µM; in experiment [10] it was 22.2 µM (≈ 37.9 µg/mL); in experiment [8], > 30 µM.

For the compound `CC(C)C[C@H](NC(=O)[C@H](CC(C)C)NC(=O)[C@H](CCCCN)NC(=O)[C@H](CC(C)C)NC(=O)CNC(=O)[C@H](CC(C)C)NC(=O)[C@H](CO)NC(=O)[C@H](CC(C)C)NC(=O)[C@H](CC(C)C)NC(=O)[C@H](CC(C)C)NC(=O)[C@H](CO)NC(=O)[C@H](CC(C)C)NC(=O)[C@@H](N)CCCCN)C(N)=O` [KLSLLLSLGLKLL], the MIC in experiment [1] is > 25 µM; in experiment [4] it was 25 µM (≈ 35.2 µg/mL); in experiment [5] it was > 25 µM; in experiment [6], 1.6 µM (≈ 2.26 µg/mL).

Consider `CC[C@H](C)[C@H](NC(=O)[C@H](CCCCN)NC(=O)[C@@H]1CCCN1C(=O)[C@H](CC(C)C)NC(=O)[C@H](Cc1ccccc1)NC(=O)[C@H](CC(N)=O)NC(=O)[C@H](C)NC(=O)[C@H](C)NC(=O)[C@H](CC(C)C)NC(=O)CNC(=O)[C@H](C)NC(=O)[C@H](CC(C)C)NC(=O)[C@H](CC(C)C)NC(=O)[C@@H]1CCCN1C(=O)[C@H](CC(C)C)NC(=O)[C@@H](N)Cc1ccccc1)C(=O)N[C@@H](Cc1ccccc1)C(=O)N[C@H]1CSSC[C@@H](C(=O)O)NC(=O)[C@H](CCCCN)NC(=O)[C@H](CCCCN)NC(=O)[C@H]([C@@H](C)O)NC(=O)[C@H]([C@@H](C)CC)NC(=O)[C@H](CCCCN)NC1=O` [FLPLLAGLAANFLPKIFCKITKKC], for which the MIC came to 25 µM (≈ 66.2 µg/mL) in experiment [1] and 12.5 µM (≈ 33.1 µg/mL) in experiment [2].
